Test [1] addresses T1, Human plasma DPP-IV (Homo sapiens, UniProt P27487).
T1 construct: Human plasma DPP-IV; from tissue; host or cells: human plasma
The test is described as follows: Plasma DPP-IV inhibitory activity (fluorescence assay, Gly-Pro-MCA substrate), human plasma. Type of test: biochemical. The settings on record: human plasma (10-fold diluted), room temperature, 60 min. Here is the method:
(§1) (Plasma DPP-IV Inhibitory Activity)
(§2) The plasma DPP-IV inhibitory activity of human and rat was measured by the fluorescence assay method. Using Gly-Pro-MCA (Peptide Institute Inc.) as a DPP-IV specific fluorescent substrate, reaction solutions having the following compositions and containing test substances having various concentrations were incubated at room temperature for 60 min and the measured (SPECTRA FLUOR, TECAN) fluorescent intensity (Excitation 360 nm/Emission 465 nm) was taken as the DPP-IV activity.
(§3) As a buffer, 0.003% Brij-35-containing phosphate buffer (PBS, Sigma-Aldrich Co.) was used.
(§4) A reaction solution free of the test substance was used as a control.
(§5) The inhibitory rate of the test substance relative to the reaction of the control was calculated, and IC50 values were determined by logistic analysis. The IC50 values of the plasma DPP-IV inhibitory activity of the present invention as determined by the above method are shown in the following table.

For test [2], the target named is T2, Rat plasma DPP-IV (Rattus norvegicus, UniProt P14740).
T2 construct: Rat plasma DPP-IV; from tissue; host or cells: rat plasma
T2 sequence (P14740 38-767 limits assumed): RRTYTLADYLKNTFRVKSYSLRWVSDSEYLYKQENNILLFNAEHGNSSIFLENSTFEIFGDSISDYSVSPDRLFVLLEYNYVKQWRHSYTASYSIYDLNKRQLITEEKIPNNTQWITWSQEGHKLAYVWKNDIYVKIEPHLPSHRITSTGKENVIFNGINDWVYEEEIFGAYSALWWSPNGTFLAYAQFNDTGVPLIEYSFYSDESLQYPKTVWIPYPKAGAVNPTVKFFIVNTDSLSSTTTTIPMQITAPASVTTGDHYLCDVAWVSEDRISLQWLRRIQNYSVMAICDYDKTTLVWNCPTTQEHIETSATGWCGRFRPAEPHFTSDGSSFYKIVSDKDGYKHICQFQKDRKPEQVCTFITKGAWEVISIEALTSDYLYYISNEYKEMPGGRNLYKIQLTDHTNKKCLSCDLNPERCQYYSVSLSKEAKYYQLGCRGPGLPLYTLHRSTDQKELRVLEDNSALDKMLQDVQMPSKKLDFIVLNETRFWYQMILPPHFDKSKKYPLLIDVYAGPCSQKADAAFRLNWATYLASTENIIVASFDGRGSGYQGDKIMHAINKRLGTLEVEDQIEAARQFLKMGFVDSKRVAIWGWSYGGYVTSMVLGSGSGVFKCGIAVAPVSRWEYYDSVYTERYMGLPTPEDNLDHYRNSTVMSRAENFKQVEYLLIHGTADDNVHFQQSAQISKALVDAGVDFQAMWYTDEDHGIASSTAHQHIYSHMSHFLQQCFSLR
The test is described as follows: Plasma DPP-IV inhibitory activity (fluorescence assay, Gly-Pro-MCA substrate), rat plasma. The settings on record: rat plasma (10-fold diluted), room temperature, 60 min. It is filed as biochemical. Here is the method:
as §1, §2, §3, §4, §5

T1 sequence (P27487 39-766 limits assumed): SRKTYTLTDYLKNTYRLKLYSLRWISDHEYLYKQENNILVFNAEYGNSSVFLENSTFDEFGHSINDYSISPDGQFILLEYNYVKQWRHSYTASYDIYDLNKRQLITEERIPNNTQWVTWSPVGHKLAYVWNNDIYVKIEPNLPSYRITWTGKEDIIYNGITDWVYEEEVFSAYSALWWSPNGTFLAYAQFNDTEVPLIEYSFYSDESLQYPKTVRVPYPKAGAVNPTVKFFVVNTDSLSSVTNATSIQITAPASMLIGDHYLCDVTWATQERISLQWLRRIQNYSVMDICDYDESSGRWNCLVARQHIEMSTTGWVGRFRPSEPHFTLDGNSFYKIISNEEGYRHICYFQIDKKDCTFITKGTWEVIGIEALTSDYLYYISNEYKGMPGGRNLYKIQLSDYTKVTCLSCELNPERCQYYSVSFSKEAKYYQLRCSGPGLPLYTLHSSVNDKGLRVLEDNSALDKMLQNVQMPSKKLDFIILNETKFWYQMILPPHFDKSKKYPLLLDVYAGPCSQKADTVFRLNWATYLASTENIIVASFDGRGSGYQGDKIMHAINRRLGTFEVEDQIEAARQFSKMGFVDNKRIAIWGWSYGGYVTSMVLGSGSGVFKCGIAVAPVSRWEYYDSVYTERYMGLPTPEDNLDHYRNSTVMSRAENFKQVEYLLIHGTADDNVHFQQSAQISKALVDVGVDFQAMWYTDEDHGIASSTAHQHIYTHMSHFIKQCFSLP

Regarding `N#Cc1ccc(N2CCN([C@H]3CC[C@@H]([C@H](N)C(=O)N4CCSC4)CC3)CC2)nc1` [Example 2, 3-((S)-2-amino-2-{cis-4-[4-(5-cyano-2-pyridyl)-1-piperazinyl]-1-cyclohexyl}acetyl)-1,3-thiazolidine], the IC50 was found to be 1.6 nM in test [1] and 1.4 nM in test [2].
Taken in the same sequence, the figures for `N[C@H](C(=O)N1CCSC1)[C@H]1CC[C@@H](N2CCN(c3nc4ccccc4s3)CC2)CC1` [Example 14, 3-((S)-2-amino-2-{cis-4-[4-(2-benzothiazolyl)-1-piperazinyl]-1-cyclohexyl}acetyl)-1,3-thiazolidine] were 2.1 nM and 1.4 nM.

One may read the IC50 as the concentration that gives 50% inhibition.

(Values after patent US7504423B2, “α-amino acid derivatives and use thereof as medicines” (Mitsubishi Tanabe Pharma Corporation, priority 2003, dated 2009).)
